# Where two headings read alike, the source gives them in different places.
# How the values were obtained:
# [1] = assay type: physicochemical; conditions: 250 μg/l
# From the text: A semi-industrial pilot device in accordance with one aspect of the invention comprises a tank for recirculating water to be treated of a volume of 1000 l, a circulation pump ensuring a circulation flow of the water to be treated in a sanitising device with a flow rate between 4 m^3 to 8 m^3/h. The sanitising device comprises a photolysis chamber comprising an inlet for water from the recirculation tank and an outlet for sanitised water directed to the recirculation tank. The photolysis chamber is formed of a rigid tubular envelope, of which the external wall is opaque to light and forming an inner space suitable for receiving five fluorescent tubes with a longitudinal axis extending in parallel with the longitudinal axis of the rigid tubular envelope. The inner volume of the decontamination reactor is in the order of […].
# The five fluorescent tubes are tubes of 200 W emitting light at a wavelength of 254 nm and arranged longitudinally in the tubular envelope at the five points of a regular pentagon and in contact with the water to be treated flowing in the photolysis chamber. In this configuration of the sanitising device, the water to be sanitised flowing in contact with the five fluorescent tubes is subjected to substantially homogeneous illumination in the order of 500 mJ/cm^2 for a circulation flow rate of water to be sanitised in the order of 6 m^3/h. The semi-industrial pilot device also comprises a tank for storing an aqueous solution of hydrogen peroxide (H2O2) provided with a pump for distributing said solution in the circulation flow of water to be sanitised issuing into the circuit of water to be sanitised upstream of and in proximity to the photolysis chamber. The concentration of the hydrogen peroxide in the aqueous solution of hydrogen peroxide is between 2 m g/l and 13 mg/l. The set-point flow rate of the pump for distributing solution of H2O2 is kept at 4 l/h.
# The flow rate of the recycling pump is 6 m^3/h and the initial boscalid concentration in the recirculation tank is 250 μg/l. The 5 lamps of the sanitising device are switched on. […]
# [2] = assay type: physicochemical; conditions: 10 min, 25 μg/l
# From the text: The semi-industrial pilot device comprises a tank for composition to be treated of a volume of 1000 l, a circulation pump ensuring a flow of composition to be treated in a sanitising device with a flow rate of 6 m^3/h. The sanitising device comprises a single photolysis chamber comprising an inlet for water from the tank of composition to be treated and an outlet for sanitised water directed to the tank of composition to be treated. The composition to be treated comprises boscalid at an initial concentration of 25 μg/l and an initial hydrogen peroxide concentration of 2 mg/l.
# The photolysis chamber is formed of a rigid tubular envelope, of which the external wall is opaque to light and forming an inner space suitable for receiving five fluorescent tubes with a longitudinal axis extending in parallel with the longitudinal axis of the rigid tubular envelope. The inner volume of the decontamination reactor is in the order of 32 l. The five fluorescent tubes are tubes of 200 W emitting light at a wavelength of 254 nm and arranged longitudinally in the tubular envelope at the five points of a regular pentagon and in contact with the water to be treated flowing in the photolysis chamber.
# After 10 minutes of operation of the semi-industrial pilot device, almost all of the composition to be treated has been illuminated in the photolysis chamber. […]
# [3] = assay type: physicochemical; conditions: 19 seconds
# From the text: A hydraulic conveyor of a plant for sorting and packaging apples containing a volume of 90 m^3 of water as composition for conveying Ariane, Rosy Glow and Pink Lady apples comprises a sanitising device in accordance with the invention formed of six photolysis chambers mounted in series, each chamber comprising five fluorescent tubes having an individual power of 200 W. The flow rate of the composition for conveying apples in the sanitising device is 36 m^3/h. It has been observed that the plurality of photolysis chambers mounted in series allows a rate of degradation of 96% of the initial boscalid to be achieved with a flow rate of the composition to be treated of 36 m^3/h and for an average residence time of the conveying composition in the sanitising device in the order of 19 seconds.
smiles,measurement,setting,value
O=C(Nc1ccccc1-c1ccc(Cl)cc1)c1cccnc1Cl [boscalid],final rate of degradation,[1],95%
same,initial degradation,[1],equivalent to that obtained with the addition of hydrogen peroxide at the concentration of 13 mg/l
same,degradation of the initial boscalid,[1]; 1 h,10%
same,rate of degradation of the initial boscalid,[2],58%
same,rate of degradation of the initial boscalid,[3],96%
